Consider 11 compounds from US4152436A, “Acylated pentadienone hydrazone, method for preparing the same, and use as fire ant control agents” (American Cyanamid Company, priority 1978, dated 1979).

The nature of data set [1]: Solubility in soybean oil. The class given is physicochemical. An excerpt: Determination of the Solubility of the Compounds of the Invention in Soybean Oil
The sample of the compound is then reweighed, the difference between the initial and final weights corresponding to the weight of the compound in solution.

Data set [2] has as its system Cabbage Looper [Trichoplusia ni (Hubner)]. In words: Insecticide test, cabbage looper 3rd instar. The class given is in vivo. The note with it: 48 h, 2 days, 26.7° C., read-out: % kill, Cabbage Looper 3rd Instar. Here is the method: Cabbage Looper [Trichoplusia ni (Hubner)]
A primary leaf of a cotton plant is dipped in the test solution and agitated for 3 seconds. It is then set in a hood to dry. Following this, the leaf is placed in a 10 cm petri dish containing a moist filter paper at the bottom and 10 third-instar loopers. The dish is covered and held at 26.7° C. After 2 days, mortality counts and estimates of feeding damage are recorded. Those materials showing partial kill and/or inhibition of feeding are held for another day for further observations.
(§1) Compounds rated active (8 or 9) are further tested at reduced concentrations in 50% acetone:50% water.

The test system of data set [3] is Tobacco Budworm [Heliothis virescens (Fabricius)]. In words: Insecticide test, tobacco budworm 1st instar (eggs / newly hatched larvae on dipped cotton leaf). Format: in vivo. The note with it: 72 h, read-out: % kill, Tobacco Budworm 1st Instar. The method, then: Tobacco Budworm [Heliothis virescens (Fabricius)]
A cotton plant with 2 true leaves expanded is dipped for 3 seconds with agitation in a 300 ppm solution. A 1.25 to 2 cm square of cheesecloth with about 50 to 100 budworm eggs 0-24 hours old is also dipped in the test solution and placed on one leaf to dry. The leaf with the treated budworm eggs is removed from the plant and placed in a 236.6 ml (8-oz) Dixie cup with a wet 5 cm piece of dental wick and covered with a lid. The other leaf is placed in a similar cup with a wick and a piece of cheesecloth infested with 50-100 newly hatched larvae is added before covering the cup with a lid. After 3 days at 26.7° C., observations of egg hatch are made as well as kill of newly hatched larvae, any inhibition of feeding, or interference of any sort with normal development.
as §1

The test system is the same in data set [4]. Briefly: whole plant or invertebrate. Format: in vivo. The note with it: 72 h, read-out: % kill, Tobacco Budworm 3rd Instar. Here is the method: Third Instar Three cotton plants with just expanded cotyledons are dipped in a 1000 ppm solution, and placed in a hood to dry. When dry, each cotyledon is cut in half and each half is placed in one of ten 29.6 ml plastic medicine cups containing a 1.25 cm dental wick saturated with water, and one third instar budworm larva is added. The cup is capped and held for 3 days at 26.7° C., after which mortality counts are made. Compounds rated active (8 or 9) are further tested at reduced concentrations in 50% acetone:50% water.

The subject of data set [5] is Southern Armyworm [Spodoptera eridania (Cramer)]. In words: whole plant or invertebrate. Format: in vivo. The following applies: for mortality at 10 ppm / mortality at 100 ppm / mortality at 1000 ppm: 48 h, read-out: % kill, Southern Armyworm 3rd Instar; for pest or weed control at 1000 µg/mL: 168 h, second leaf, 7 days from original treatment, read-out: % kill, Southern Armyworm 3rd Instar, 7 days (residual activity). Here is the method:
Southern Armyworm [Spodoptera eridania ([…] bean plant with just the primary leaves expanded to 7.6 to 10 cm is dipped for 3 seconds with agitation in a 1000 ppm solution and set in a hood to dry. […] The dish is covered and held at 26.7° C. After 2 days mortality counts and estimates of the amount of feeding are made. Compounds showing partial kill and/or inhibition of feeding are held for an extra day for further observations. All compounds showing activity as defined above are retested, using the second leaf on the bean plant, after an interval of 7 days from original treatment, as an assay of residual activity. Compounds rated active (8 or 9) are further tested at reduced concentrations in 50% acetone:50% water.

For the compound `CC1(C)CN=C(NN=C(C=Cc2ccc(C(F)(F)F)cc2)C=Cc2ccc(C(F)(F)F)cc2)N(C(=O)c2ccccc2)C1` [drawing 32], in data set [1], the “Solubility in Soybean oil, In % of w/w” value is 0.4 % of w/w and the “Solubility in Soybean oil, In g/g of oil” value is 0.004 g/g of oil.

Consider `CCCCCCCCCCCCCCCC(=O)N1CC(C)(C)CN=C1NN=C(C=Cc1ccc(C(F)(F)F)cc1)C=Cc1ccc(C(F)(F)F)cc1` [drawing 33], for which, in data set [1], the “Solubility in Soybean oil, In % of w/w” value is given as 2.0 % of w/w and the “Solubility in Soybean oil, In g/g of oil” value was 0.02 g/g of oil.

For `CCCCCCCCC=CCCCCCCCC(=O)N1CC(C)(C)CN=C1NN=C(C=Cc1ccc(C(F)(F)F)cc1)C=Cc1ccc(C(F)(F)F)cc1` [R1=CF3, R3=n-C8 H17CHCH(CH2)7], the mortality at 10 ppm in data set [2] was 0%; in data set [3] it was 0 to 40%; in data set [4] it was 0%; in data set [5], 20%. In addition, the mortality at 100 ppm in data set [2], in data set [3], in data set [4] and in data set [5] was 100% each time. Further, the mortality at 1000 ppm in data set [2], in data set [4] and in data set [5] was 100% in each case. For the same compound, the pest or weed control at 1000 µg/mL in data set [5] worked out at 100%.

For `CC1(C)CN=C(NN=C(C=Cc2ccc(C(F)(F)F)cc2)C=Cc2ccc(C(F)(F)F)cc2)NC1`, in data set [1], the “Solubility in Soybean oil, In % of w/w” value is reported as 0.1 % of w/w and the “Solubility in Soybean oil, In g/g of oil” value is 0.001 g/g of oil.

Take `CC(=O)N1CC(C)(C)CN=C1NN=C(C=Cc1ccc(Cl)cc1)C=Cc1ccc(Cl)cc1` [R1=Cl, R3=CH3]: the mortality at 10 ppm in data set [2] is 0%; in data set [3] it was 0 to 40%; in data set [4] it was 0%. The mortality at 100 ppm in data set [2], in data set [3], in data set [4] and in data set [5] was 100% throughout. The mortality at 1000 ppm in data set [2], in data set [4] and in data set [5] was 100% throughout.

Consider `CC1(C)CN=C(NN=C(C=Cc2ccc(Cl)cc2)C=Cc2ccc(Cl)cc2)N(C(=O)c2ccccc2)C1`, for which, in data set [2], the mortality at 10 ppm worked out at 0%, the mortality at 100 ppm is 100% and the mortality at 1000 ppm is 100%. Besides, in data set [3], the mortality at 10 ppm is 0 to 40% and the mortality at 100 ppm was 41 to 60%. Further, in data set [4], the mortality at 100 ppm turned out to be 0% and the mortality at 1000 ppm stood at 100%. In addition, in data set [5], the mortality at 10 ppm turned out to be 30%, the mortality at 100 ppm was 100%, the mortality at 1000 ppm came out at 100% and the pest or weed control at 1000 µg/mL was 100%.

In the case of `CC(=O)N1CC(C)(C)CN=C1NN=C(C=Cc1ccc(C(F)(F)F)cc1)C=Cc1ccc(C(F)(F)F)cc1` [drawing 31], in data set [1], the “Solubility in Soybean oil, In % of w/w” value is on record as 0.3 % of w/w and the “Solubility in Soybean oil, In g/g of oil” value is given as 0.003 g/g of oil.

With `CC(=O)N1CCCCN=C1NN=C(C=Cc1ccc(C(F)(F)F)cc1)C=Cc1ccc(C(F)(F)F)cc1`, the mortality at 10 ppm is 0% in data set [2], 0 to 40% in data set [3], 0% in data set [4] and 100% in data set [5]. Moreover, the mortality at 100 ppm in data set [2] is 100%; in data set [3], 41 to 60%; in data set [4], 70%; in data set [5], 0%. Further, the mortality at 1000 ppm in data set [2], in data set [4] and in data set [5] was 100% throughout. Besides, the pest or weed control at 1000 µg/mL in data set [5] is 100%.

In the case of `CC1(C)CN=C(NN=C(C=Cc2ccc(C(F)(F)F)cc2)C=Cc2ccc(C(F)(F)F)cc2)N(C(=O)c2ccc(C(C)(C)C)cc2)C1`, in data set [2], the mortality at 10 ppm is 0%, the mortality at 100 ppm turned out to be 100% and the mortality at 1000 ppm is 100%. For the same compound, in data set [3], the mortality at 10 ppm was in the range of 0 to 40%, the mortality at 100 ppm fell in the range of 0 to 40% and the mortality at 300 ppm lay within 86 to 95%. In data set [4], the mortality at 10 ppm turned out to be 0%, the mortality at 100 ppm was determined as 100% and the mortality at 1000 ppm came to 100%. Besides, in data set [5], the mortality at 10 ppm came to 0%, the mortality at 100 ppm came to 90%, the mortality at 1000 ppm was 100% and the pest or weed control at 1000 µg/mL was 0%.

Turning to `CCCCCCCCCCCCCCCC(=O)N1CC(C)(C)CN=C1NN=C(C=Cc1ccc(C(F)(F)F)cc1)C=Cc1ccc(C(F)(F)F)cc1` [R1=CF3, R3=n-C15 H31], in data set [2], the mortality at 10 ppm was 0%, the mortality at 100 ppm is 60% and the mortality at 1000 ppm was 100%. Also, in data set [3], the mortality at 100 ppm is 0 to 40% and the mortality at 300 ppm lay within 86 to 95%. In data set [4], the mortality at 10 ppm came to 0%, the mortality at 100 ppm came to 30% and the mortality at 1000 ppm is 100%. Moreover, in data set [5], the mortality at 10 ppm turned out to be 0%, the mortality at 100 ppm turned out to be 100%, the mortality at 1000 ppm is 100% and the pest or weed control at 1000 µg/mL was found to be 80%.

Turning to `CCCCC(=O)N1CC(C)(C)CN=C1NN=C(C=Cc1ccc(C(F)(F)F)cc1)C=Cc1ccc(C(F)(F)F)cc1` [R1=CF3, R3=n-C4 H9], in data set [2], the mortality at 100 ppm was 100% and the mortality at 1000 ppm amounted to 100%. For the same compound, the mortality at 300 ppm in data set [3] lay within 86 to 95%. Moreover, in data set [4], the mortality at 100 ppm is 40% and the mortality at 1000 ppm amounted to 100%. In addition, in data set [5], the mortality at 10 ppm is 0%, the mortality at 100 ppm amounted to 100%, the mortality at 1000 ppm was 100% and the pest or weed control at 1000 µg/mL worked out at 100%.
